Columns and labels:
[1] = system: CD26; assay: ELISA: binding of gliadin, casein peptides, SK and ethyl mercury to CD26 (inhibition of anti-CD26 binding); details: for % Binding of Gliadin, Casein, Streptokinase, or Mercury to CD26 and CD69: CD26 coated wells, % inhibition in binding of anti-CD26 to CD26; for ELISA O.D. at 492 nm: microwell coated with CD26 + competing antigen, peroxidase labeled rabbit anti-CD26
Protocol: (§1) Plates were incubated for one hour at 37° C. and washed five times for removal of unbound competing antigens. […] After proper incubation and washing, binding of these peptides and proteins to CD26 and CD69 was measured by addition of peroxidase substrate and measurement of color development at 492 nm.

[2] = target: T1, CD69 (Homo sapiens, UniProt Q07108); assay: ELISA: binding of gliadin, casein peptides, SK and ethyl mercury to CD69 (inhibition of anti-CD69 binding); details: for % Binding of Gliadin, Casein, Streptokinase, or Mercury to CD26 and CD69: CD69 coated wells, % inhibition of anti-CD69 binding to CD69; for ELISA O.D. at 492 nm: microwell coated with CD69 + competing antigen, peroxidase labeled rabbit anti-CD69
T1 construct: purchased Bio-Synthesis Inc. (Lewisville, Tex.); host or cells: chemical synthesis
Protocol: as §1

[3] = target: CD69 antibody binding epitope … (human); assay: competition ELISA, CD69-coated wells, read with peroxidase labeled rabbit anti-CD69

## Casein
[1]
  % Binding of Gliadin, Casein, Streptokinase, or Mercury to CD26 and CD69: 44%
  ELISA O.D. at 492 nm: 1.34 O.D.
[2]
  % Binding of Gliadin, Casein, Streptokinase, or Mercury to CD26 and CD69: 28%
  ELISA O.D. at 492 nm: 1.45 O.D.

## streptokinase [SK]
[1]
  % Binding of Gliadin, Casein, Streptokinase, or Mercury to CD26 and CD69: 77%
  ELISA O.D. at 492 nm: 0.72 O.D.
[2]
  % Binding of Gliadin, Casein, Streptokinase, or Mercury to CD26 and CD69: 86%
  ELISA O.D. at 492 nm: 0.48 O.D.

B1: Streptokinase (SK), P00779 27-440 (protein)
chain: IAGPEWLLDRPSVNNSQLVVSVAGTVEGTNQDISLKFFEIDLTSRPAHGGKTEQGLSPKSKPFATDSGAMSHKLEKADLLKAIQEQLIANVHSNDDYFEVIDFASDATITDRNGKVYFADKDGSVTLPTQPVQEFLLSGHVRVRPYKEKPIQNQAKSVDVEYTVQFTPLNPDDDFRPGLKDTKLLKTLAIGDTITSQELLAQAQSILNKNHPGYTIYERDSSIVTHDNDIFRTILPMDQEFTYRVKNREQAYRINKKSGLNEEINNTDLISEKYYVLKKGEKPYDPFDRSHLKLFTIKYVDVDTNELLKSEQLLTASERNLDFRDLYDPRDKAKLLYNNLDAFGIMDYTLTGKVEDNHDDTNRIITVYMGKRPEGENASYHLAYDKDRYTEEEREVYSYLRYTGTPIPDNPNDK
[3]
  % Binding of Gliadin, Casein, Streptokinase, or Mercury to CD26 and CD69 (% inhibition of anti-CD69 binding): 86%

— patent publication US7252957B2, “Identification of etiology of autism” (Immunosciences Lab., Inc., priority 2004, dated 2007)
